Assay results from patent publication US10227347B2, “Purinyl-N-hydroxyl pyrimidine formamide derivative, preparation methods and uses thereof” (Guizhou Bailing Group Pharmaceutical CO., LTD., priority 2015, dated 2019).
pIC50: −log10 of the molar value. Where two headings read alike, the source gives them in different places.

Key:
[1] = tested on: MV4-11 cells (acute myeloid leukemia); test: Cell proliferation inhibition, MV4-11 (cck-8); assay type: cell-based; details: Homo sapiens
Method: (§1) The tumor cell lines are purchased from American Type Culture Collection (ATCC) and cultivated to the status of logarithmic growth as per the cultural method recommended by ATCC. The cells in logarithmic phase are spread on a 96 well plate as per 2000-3000/well; as for anchorage-dependent cells, the compound should be added in the test wells at certain concentration for incubation for 96 h after cell adherence. Determining cell proliferation activities with method MTT for tumor cells representing solid tumor model and with method cck-8 for tumor cells representing hematologic tumor model, and analyzing the result data with the software GraphPad Prism.
(§2) Calculating the value of IC50 as per the formula: Y=background data+(top data−background data)/(1+10^((Log IC50−X)*rate of curve)). Where, Y refers to the inhibition ratio (%) and X refers to the compound concentration.

HDAC1 = molecular target: T1, HDAC1 (Homo sapiens, UniProt Q13547); test: In vitro HDAC1 enzymatic activity inhibition (Lys-Ac-AMC substrate); assay type: biochemical
T1 construct: purchased BPS Bioscience
T1 sequence (Q13547 whole entry, species assumed): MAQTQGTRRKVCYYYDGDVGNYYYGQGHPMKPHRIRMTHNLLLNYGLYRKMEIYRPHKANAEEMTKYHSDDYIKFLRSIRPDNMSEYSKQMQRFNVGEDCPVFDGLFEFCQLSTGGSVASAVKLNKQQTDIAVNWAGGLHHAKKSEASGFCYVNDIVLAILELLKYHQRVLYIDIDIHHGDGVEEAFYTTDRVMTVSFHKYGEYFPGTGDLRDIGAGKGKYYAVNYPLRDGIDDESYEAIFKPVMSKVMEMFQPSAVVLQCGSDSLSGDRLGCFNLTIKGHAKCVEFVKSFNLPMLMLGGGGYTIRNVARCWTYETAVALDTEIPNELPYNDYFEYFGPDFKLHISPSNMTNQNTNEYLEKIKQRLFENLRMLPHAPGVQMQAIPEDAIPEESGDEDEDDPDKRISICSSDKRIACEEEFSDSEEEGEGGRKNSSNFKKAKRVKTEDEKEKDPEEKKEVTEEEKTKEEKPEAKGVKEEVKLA
Method: Determining the inhibition capability to HDAC activity through the substrate method of fluorophore 4-amino-7-coumarin coupled Ac-peptide (Lys-Ac-AMC). HDAC1 protein is purchased from BPS Bioscience Company; the reaction buffer system is a modified tris(hydroxymethyl)aminomethane (TRIS) buffer (pH7.0). All small molecule compounds are prepared and dissolved by 100% DMSO (dimethyl sulfoxide). HDAC is prepared into the buffer as per certain concentration to be served as the enzyme solution; trypsin and the fluorophore 4-amino-7-coumarin coupled Ac-peptide substrate are prepared into the buffer as per certain concentration to be served as the substrate solution. Adding the compound into the reaction wells of the 384 well plate at the designed concentration, then adding 15 μL HDAC solution into the reaction wells (adding 15 μL blank buffer into the control well 0) for incubation under ambient temperature for 15 min; then adding 10 μL substrate solution to start reaction; during the reaction, the final concentration of HDAC1 protein is 6 nM, trypsin 0.05 μM and Ac-peptide 8 μM.
(§3) Calculating the value of IC50 as per the formula: Y=background data+(top data−background data)/(1+10^((Log IC50−X)*rate of curve))
Where, Y refers to the inhibition ratio (%) and X refers to the compound concentration. […]
Analyzing the result data with the software GraphPad Prism and calculating the value of IC50 as per the formula: Y=background data+(top data−background data)/(1+10^((Log IC50−X)*rate of curve)). Where, Y refers to the inhibition ratio (%) and X refers to the compound concentration.

[2] = tested on: hct116 cells (colon cancer); test: Cell proliferation inhibition, hct116 (MTT); assay type: cell-based; details: Homo sapiens, HCT-116
Method: as §1, §2

PI3Kα = molecular target: T2, PI3Kα (Homo sapiens, UniProt P42336); test: PI3Kα activity inhibition (Kinase-Glo); assay type: biochemical
T2 construct: purchased Invitrogen PV4788
T2 sequence (P42336 whole entry, species assumed): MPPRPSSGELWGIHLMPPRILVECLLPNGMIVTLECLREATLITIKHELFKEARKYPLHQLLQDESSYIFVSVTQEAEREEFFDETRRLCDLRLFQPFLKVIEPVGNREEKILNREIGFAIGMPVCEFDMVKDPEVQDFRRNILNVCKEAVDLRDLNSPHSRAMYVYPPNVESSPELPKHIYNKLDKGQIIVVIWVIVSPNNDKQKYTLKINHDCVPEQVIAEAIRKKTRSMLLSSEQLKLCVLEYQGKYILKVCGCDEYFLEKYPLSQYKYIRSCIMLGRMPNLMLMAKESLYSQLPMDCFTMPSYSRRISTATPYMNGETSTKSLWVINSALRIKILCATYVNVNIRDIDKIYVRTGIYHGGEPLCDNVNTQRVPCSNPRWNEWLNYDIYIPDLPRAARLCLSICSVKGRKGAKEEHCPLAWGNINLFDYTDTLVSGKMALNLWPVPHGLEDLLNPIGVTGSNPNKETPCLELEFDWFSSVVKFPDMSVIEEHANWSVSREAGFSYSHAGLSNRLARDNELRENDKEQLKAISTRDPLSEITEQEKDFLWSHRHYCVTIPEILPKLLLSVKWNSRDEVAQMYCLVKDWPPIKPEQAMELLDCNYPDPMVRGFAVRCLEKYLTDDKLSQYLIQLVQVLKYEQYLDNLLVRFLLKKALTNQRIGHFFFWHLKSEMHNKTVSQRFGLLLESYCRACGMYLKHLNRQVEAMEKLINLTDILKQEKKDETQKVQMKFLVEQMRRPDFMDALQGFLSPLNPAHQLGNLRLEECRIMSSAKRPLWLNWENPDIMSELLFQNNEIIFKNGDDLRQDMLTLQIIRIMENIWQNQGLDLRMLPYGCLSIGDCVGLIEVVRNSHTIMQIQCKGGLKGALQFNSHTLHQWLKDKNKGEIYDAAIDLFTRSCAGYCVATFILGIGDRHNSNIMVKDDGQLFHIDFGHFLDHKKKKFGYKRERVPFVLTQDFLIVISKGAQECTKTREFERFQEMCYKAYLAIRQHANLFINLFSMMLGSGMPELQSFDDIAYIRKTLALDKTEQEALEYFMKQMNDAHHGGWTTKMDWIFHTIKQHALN
T2 sequence (P27986 whole entry partner, species assumed): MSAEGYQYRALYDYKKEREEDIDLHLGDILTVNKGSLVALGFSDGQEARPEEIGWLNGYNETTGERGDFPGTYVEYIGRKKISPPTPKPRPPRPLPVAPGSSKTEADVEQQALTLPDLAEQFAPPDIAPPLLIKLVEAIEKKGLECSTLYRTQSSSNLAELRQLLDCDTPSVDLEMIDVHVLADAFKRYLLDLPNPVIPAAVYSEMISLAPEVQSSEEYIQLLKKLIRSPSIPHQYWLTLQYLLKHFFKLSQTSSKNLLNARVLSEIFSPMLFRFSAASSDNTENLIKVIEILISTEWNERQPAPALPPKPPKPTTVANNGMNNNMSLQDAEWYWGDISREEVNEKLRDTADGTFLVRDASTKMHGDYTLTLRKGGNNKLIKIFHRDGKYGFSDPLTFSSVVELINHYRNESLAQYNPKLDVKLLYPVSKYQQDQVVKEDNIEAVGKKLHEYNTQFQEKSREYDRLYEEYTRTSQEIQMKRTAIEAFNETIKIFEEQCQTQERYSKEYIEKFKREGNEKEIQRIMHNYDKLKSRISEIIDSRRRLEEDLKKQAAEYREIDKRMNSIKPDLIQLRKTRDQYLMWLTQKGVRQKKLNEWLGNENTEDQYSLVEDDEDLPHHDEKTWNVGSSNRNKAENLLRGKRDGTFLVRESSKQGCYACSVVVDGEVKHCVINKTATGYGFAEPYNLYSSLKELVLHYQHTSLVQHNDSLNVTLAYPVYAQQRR
Method: Detecting the inhibition capability of the compound to PI3Kα and PI3Kδ activities with Kinase-Glo (purchased from Promege Company; Catalog No.: V3771). […] The reaction system also comprises substrates as PIP2 (4, 5-diphosphoinositide, purchased from Life Technologies Company) and ATP (triphosadenine, purchased from Sigma Company). The reaction buffer system comprises 50 mM HEPES (4-hydroxyethylpiperazine ethane sulfonic acid), 3 mM MgCl2, 1 mM EGTA (ethylene glycol bis(2-amino ethylether)quadrol), 100 mM NaCl, 0.03% CHAPS (3-[3-(cholamidopropyl)dimethylamino]-1-propanesulfonic acid), 2 mM DTT (dithiothreitol). The pH value of the reaction buffer is 7.5. […] Mixing the system evenly for incubation under ambient temperature (for 1 h in PI3Kα test and for 2 h in PI3Kδ test). After incubation, adding 10 μL Kinase-Glo which has been preheated to ambient temperature into each reaction well to terminate the reaction; shaking it in dark place for 15 min after it is mixed evenly, then measuring the fluorescence intensity with a microplate reader and analyzing the result data with the software GraphPad Prism.
as §3
Where, Y refers to the inhibition ratio (%) and X refers to the compound concentration.

[3] = tested on: A2780s cells (ovarian cancer); test: Cell proliferation inhibition, A2780s (MTT); assay type: cell-based; details: Homo sapiens, 96 h incubation, read-out: Proliferation IC50, Ovarian cancer A2780s
Method: as §1, §2

[4] = 96 h incubation, read-out: Proliferation IC50, Acute myeloid leukemia MV4-11
[5] = Table 1, graded, read-out: HDAC1 IC50
[6] = 96 h incubation, read-out: Proliferation IC50, Colon cancer hct116
[7] = Table 1, graded, read-out: PI3Kα IC50

SMILES | pIC50 [1, 4] | pIC50 (HDAC1; [5]) | pIC50 [2, 6] | pIC50 (PI3Kα; [7]) | pIC50 [3] | pIC50 ([1]; read-out: IC50 to proliferation of MV4-11 cells) | pIC50 ([2]; read-out: IC50 to proliferation of hct116 cells) | pIC50 (HDAC1; read-out: inhibition value IC50 to the activity of HDAC1) | pIC50 (PI3Kα; read-out: inhibition value IC50 to the activity of PI3Kα)
CCn1c(CN(C)c2ncc(C(=O)NO)cn2)nc2c(N3CCOCC3)nc(-c3ccc(OC)nc3)nc21 [CLJ-2, 2-(((9-ethyl-2(6-methoxyl 3-pyridyl)-6-morpholino-9H-purine-8-yl))methyl(methyl)amino)-N-hydroxyl pyrimidine-5-formamide] | 6.00 to 7.00 | > 7.00 | 6.00 to 7.00 | 5.00 to 6.00 | 6.00 to 7.00 |  |  |  | 
COc1ccc(-c2nc(N3CCOCC3)c3nc(CN(C)c4ncc(C(=O)NO)cn4)n(C(C)C)c3n2)cn1 [CLJ-3, 2-(((9-isopropyl-2-(6-methoxyl-3-pyridyl)-6-morpholino-9H-purine-8-yl))methyl(methyl)amino)-N-hydroxyl pyrimidine-5-formamide] | < 6.00 | > 7.00 | < 6.00 | 5.00 to 6.00 | < 6.00 |  |  |  | 
COc1ccc(-c2nc(N3CCOCC3)c3nc(CN(C)c4ncc(C(=O)NO)cn4)n(C4CCCC4)c3n2)cn1 [CLJ-4, 2-(((9-cyclopentyl-2-(6-methoxyl-3-pyridyl)-6-morpholino-9H-purine-8-yl))methyl(methyl)amino)-N-hydroxyl pyrimidine-5-formamide] | < 6.00 | > 7.00 | < 6.00 | 5.00 to 6.00 | < 6.00 |  |  |  | 
CN(Cc1nc2c(N3CCOCC3)nc(-c3ccc(N)nc3)nc2n1C)c1ncc(C(=O)NO)cn1 [CLJ-7, 2-(((2-(p-amino-3-pyridyl)-9-methyl-6-morpholine-9H-purine-8-yl))methyl(methyl)amino)-N-hydroxyl pyrimidine-5-formamide] | 8.00 to 10.00 | > 7.00 | 6.00 to 7.00 | < 5.00 | 7.00 to 8.00 | > 8.00 | < 7.00 |  | 
CN(Cc1nc2c(N3CCOCC3)nc(-c3cccnc3)nc2n1C)c1ncc(C(=O)NO)cn1 [CLJ-9, 2-(((2-(3-pyridyl)-9-methyl-6-morpholine-9H-purine-8-yl))methyl(methyl)amino)-N-hydroxyl pyrimidine-5-formamide] | 8.00 to 10.00 | > 9.00 | 7.00 to 8.00 | < 5.00 | 7.00 to 8.00 |  |  | > 9.00 | 
CN(Cc1nc2c(N3CCOCC3)nc(-c3cncnc3)nc2n1C)c1ncc(C(=O)NO)cn1 [CLJ-10, 2-(((2-(pyrimidine-5-yl)-9-methyl-6-morpholine-9H-purine-8-yl))methyl(methyl)amino)-N-hydroxyl pyrimidine-5-formamide] | 7.00 to 8.00 | > 7.00 | 7.00 to 8.00 | > 7.00 | 6.00 to 7.00 |  |  |  | > 7.00
CCCN(Cc1nc2c(N3CCOCC3)nc(-c3ccc4[nH]ncc4c3)nc2n1C)c1ncc(C(=O)NO)cn1 [CLJ-16, N-hydroxy-2-(((2-(1H-indazole-5-yl)-9-methyl-6-morpholine-9H-purine-8-yl))methyl(propyl)amino)pyrimidine-5-formamide] | < 6.00 | 6.00 to 7.00 | < 6.00 | < 5.00 | < 6.00 |  |  |  | 
COc1ccc(-c2nc(N3CCNCC3)c3nc(CN(C)c4ncc(C(=O)NO)cn4)n(C)c3n2)cc1 [CLJ-69, N-hydroxy-2-(((2-(4-methoxyphenyl)-9-methyl-6-(piperazine-1-yl)-9H-purine-8-yl)methyl)(methyl)amino)pyrimidine-5-formamide] |  | > 7.00 |  | < 5.00 |  |  |  |  | 
COc1ccc(-c2nc(N3CCN(CCO)CC3)c3nc(CN(C)c4ncc(C(=O)NO)cn4)n(C)c3n2)cc1 [CLJ-70, N-hydroxy-2-(((2-(4-methoxyphenyl)-9-methyl-6-(4-(2-hydroxyethylpiperazine)-1-yl)-9H-purine-8-yl)methyl)(methyl)amino)pyrimidine-5-formamide] |  | > 7.00 |  | < 5.00 |  |  |  |  | 
Nc1cc(F)ccc1NC(=O)c1ccc(CNC(=O)/C=C/c2cccnc2)cc1 [Chidamide, chidamide, reference compound] | 6.00 to 7.00 |  | < 6.00 |  | < 6.00 |  |  |  | 
